Experimental data from the NIST ThermoML archive (doi:10.1016/j.fluid.2008.03.004).

Assay: xn = mol fraction of the nth substance listed
Settings: 101 kPa, Liquid; for speed of sound: Sing-around technique in a fixed-path interferometer

Cc1cccc(C)c1 [1,3-dimethylbenzene] + COC(C)(C)C
Settings | mass density, 315.65 K [kg/m3] | mass density, 318.15 K [kg/m3] | mass density, 320.65 K [kg/m3] | mass density, 323.15 K [kg/m3] | speed of sound, 315.65 K [m/s] | speed of sound, 318.15 K [m/s] | speed of sound, 320.65 K [m/s] | speed of sound, 323.15 K [m/s]
x2 = 0 | 844.792 | 842.622 | 840.452 | 838.289 | – | 1239.3 | 1229.3 | 1219.5
x2 = 0.047 | 839.381 | 837.193 | 835 | 832.812 | – | 1226.9 | 1216.9 | 1207
x2 = 0.115 | 831.348 | 829.131 | 826.912 | 824.696 | – | 1208.5 | 1198.3 | 1188.4
x2 = 0.212 | 819.775 | 817.518 | 815.256 | 813.002 | – | 1181.2 | 1171 | 1161.1
x2 = 0.304 | 808.673 | 806.375 | 804.075 | 801.776 | – | 1155.6 | 1145.3 | 1135.1
x2 = 0.399 | 796.825 | 794.481 | 792.132 | 789.785 | – | 1128.3 | 1118 | 1107.7
x2 = 0.5 | 784.01 | 781.614 | 779.21 | 776.809 | 1109.7 | 1099.1 | 1088.6 | 1078.2
x2 = 0.601 | 770.967 | 768.518 | 766.061 | 763.606 | 1079.5 | 1068.8 | 1058.2 | 1047.7
x2 = 0.651 | 764.3 | 761.816 | 759.325 | 756.839 | 1063.9 | 1053.1 | 1042.4 | 1031.9
x2 = 0.794 | 744.791 | 742.213 | 739.628 | 737.044 | 1020.2 | 1009.3 | 998.4 | 987.59
x2 = 0.898 | 730.402 | 727.749 | 725.085 | 722.414 | 987.66 | 976.53 | 965.42 | 954.46
x2 = 0.954 | 722.504 | 719.811 | 717.105 | 714.398 | 970.42 | 959.09 | 947.81 | 936.68
